Marks after values point to notes of the source that are not given here.

Assay [1] concerns Sprague Dawley rats. Description: Acute plantar inflammation model (carragenin) in rats. In kind it is in vivo, rat. The note with it: 1% carragenin, 6 hrs; anthocyanidins 35 mg/kg, diclofenac 2 mg/kg. On the procedure:
We assayed the effect of anthocyanidins on inflammation in vivo in an acute plantar inflammation model. Inflammation was induced in Sprague Dawley rats (200 g) using 1% carragenin (Sigma-Aldrich). The animals were treated with 35 mg/kg of anthocyanidins rich in […] (prepared according to the method descirbed in Example 1) or with diclofenac (2 mg/kg). The diameter of the treated legs was measured with a digital caliper over 6 hrs.

The test system of assay [2] is Jurkat T cells. Description: Calcium release in Jurkat T cells in HBSS calcium free medium. In kind it is cell-based. The note with it: 50 or 100 uM U73122 for 10 minutes prior to 50 uM delphinidin. On the procedure: To measure calcium release, 4×10^6 FURA 2-AM-loaded Jurkat T cells were incubated in HBSS calcium free medium as decribed in Example 6. The cells were incubated in 50 uM delphinidin, or in 50 uM delphinidin and 10 μM N-[4-[3,5-bis(trifluoromethyl)-1H-pyrazol-1-yl]phenyl]-4-methyl-1,2,3-thiadiazole-5-carboxamide (BTP-2, a Store-Operated Calcium Entry (SOCE) inhibitor). The release of Ca^2+ was measured as ratio of excitation at 340 and 380 nm, and emission at 509 nm, for 200 seconds, at 37° C., in a spectrofluorimeter (LS55, PerkinElmer).
4×10^6 FURA 2-AM-loaded Jurkat T cells were incubated in HBSS calcium free medium. The cells were then incubated in 50 uM delphinidin and the fluxes of Ca^2+ were measured as ratio of excitation at 340 and 380 nm, and emission at 509 nm, at 37° C. in a spectrofluorimeter (LS55, PerkinElmer).
4×10^6 FURA 2-AM-loaded Jurkat T cells were incubated in HBSS calcium free medium. The cells were then treated with vehicle alone or 50 or 100 uM U73122 for 10 minutes prior to incubation in 50 uM delphinidin. Ca^2+ flux was measured as ratio of excitation at 340 and 380 nm, and emission at 509 nm, at 37° C. in a spectrofluorimeter (LS55, PerkinElmer).

For assay [3], the system named is Human T cells. Description: IL-2 production in freshly isolated human T cells (ELISA). The assay is classed as cell-based. The procedure: (§1) The effect of delphinidin on IL-2 and INF-γ production was also assayed on freshly isolated human T cells. Human T cells were isolated from blood of healthy volunteers using Lymphoprep reagent. T cells (1×10^6) in RMPI medium were incubated for 48 hrs at 37° C., in 5% CO2 in the presence of a vehicle control solution; 50 μM delphinidin; 50 μM delphinidin+1 μM BTP-2; 50 μM delphinidin+5 μM BTP-2; 50 μM delphinidin+10 μM BTP-2; 1 μM BTP-2; 5 μM. BTP-2; or 10 μM BTP-2. Then the supernatants were collected and analyzed using commercial ELISA kit (Becton Dickinson, USA) to measure IL-2 and INF-γ production according to the supplier's directions.
We evaluated the effect of a combination of delphinidin and andandrographolide on IL-2 production in both freshly harvested human T cells and the Jurkat cell line. Andrographolide was prepared according to the method described in Example 4. Human T cells were isolated from blood of healthy volunteers using Lymphoprep reagent. T cells (1×10^6) in RMPI medium were incubated for 48 hrs at 37° C., in 5% CO2 in the presence of a vehicle control solution; 5 nM andrographolide; 50 μM delphinidin; or 5 nM andrographolide plus 50 μM delphinidin. Then the supernatants were collected and analyzed using commercial ELISA kit (Becton Dickinson, USA) to measure IL-2 production according to the supplier's directions.
(In general: In an ELISA, binding on a coated surface is turned into a signal by an enzyme label.)

Assay [4] deals with Jurkat T cells. Briefly: IL-2 production in Jurkat T cells (ELISA). The assay is classed as cell-based. On the procedure:
(§2) 2×10^6 Jurkat T cells in RPMI medium were incubated for 48 hrs at 37° C., in 5% CO2 in the presence of vehicle control solution; or the T cell activator, phorbol 12-myristate 13-acetate/lonomycin (PMA/Io 2 ng/ml 1 uM); 50 μM of delphinidin; 50 μM delphinidin+PMA/Io; 50 μM cyanidin; or 50 μM cyaniding+PMA/Io. Then the supernatants were collected and IL-2 production was analyzed by ELISA using a commercial kit (Becton Dickinson, USA) according to the supplier's directions.
Then the supernatants were collected and analyzed using commercial ELISA kit (Becton Dickinson, USA) to measure IL-2 production according to the supplier's directions.
Jurkat T cells were incubated in either a vehicle control solution; 5 nM andrographolide; 50 μM delphinidin; or 5 nM andrographolide plus 50 μM delphinidin.

For assay [5], the system named is PPAR-γ. Description: PPAR-γ-Luc reporter assay in HL-60 cells. The assay is classed as cell-based, Human. The settings on record: control substances, 12 h, concentration not given. The procedure: We examined the effect of delphindin-rich anthocyanidins on PPAR-γ activation. HL-60 cells in IMDM medium were transfected with the reporter vectors PPAR-γ-Luc (5 μg) (Panomics) and TK-RL (1 μg) (Promega) using Fugene 6 reagent (Roche), and cultured for 24 hr. Then, the cells were incubated for 12 h in 0.175, 1.75, or 17.5 μg/ml of delphindin-rich anthocyanidins, phorbol myristate acetate (PMA), 15-deoxi-d 12,14-prostaglandin J2 (PGj2), or tumor necrosis factor alpha (TNFα) as controls. Luciferase activity was measured using the Dual-Luciferase Reporter Assay kit (DLR) from Promega in a luminometer (Luminoskan).

The subject of assay [6] is Jurkat T cells. Description: INF-γ production in Jurkat T cells (ELISA). The note with it: 48 hrs. In kind it is cell-based. On the procedure: as §2, with “We also explored the effect of delphinidin and cyanidin on Interferon-gamma (INF-γ) production in Jurkat T cells. 2×10^6” for “2×10^6”, “CO2. The samples were incubated” for “CO2”, “13-acetate/Ionomycin” for “13-acetate/lonomycin”, “IFN-γ” for “IL-2”

For assay [7], the system named is Human T cells. Description: INF-γ production in freshly isolated human T cells (ELISA). The assay is classed as cell-based. The note with it: 48 hrs. The procedure: as §1
In assay [8] the test system is Jurkat T cells. Description: Calcium entry (SOCE) in Jurkat T cells after addition of CaCl2. In kind it is cell-based. On the procedure: To measure calcium entry after 200 seconds, when the levels of calcium returned to the baseline, 0.9 mM of CaCl2 was added, and the fluxes of Ca^2+ were measured as ratio of excitation ratio at 340 and 380 nm, and emission at 509 nm in a spectrofluorimeter during 150 seconds.
4×10^6 FURA 2-AM-loaded Jurkat T cells were incubated in HBSS calcium free medium. The cells were incubated in 50 uM delphinidin or 50 uM delphinidin plus 10 μM BTP-2 and the fluxes of Ca^2+ were measured as ratio of excitation at 340 and 380 nm, and emission at 509 nm, at 37° C. in a spectrofluorimeter (LS55, PerkinElmer).

Setting [9] is: Table 10, 48 hrs, andrographolide 5 nM, delphinidin 50 μM.
Setting [10] is: Table 11, andrographolide 5 nM, delphinidin 50 μM.
Where [11] appears, read: delphinidin 50 μM, cyanidin 50 μM, PMA/Io 2 ng/ml 1 uM.
Setting [12] is: Table 5, 48 hrs, delphinidin 50 μM, cyanidin 50 μM, PMA/Io 2 ng/ml 1 uM.
Where [13] appears, read: 1 μM BTP-2, alone or with 50 μM delphinidin.
[14] abbreviates: 5 μM BTP-2, alone or with 50 μM delphinidin.
Where [15] appears, read: 10 μM BTP-2, alone or with 50 μM delphinidin.

As for `O=C(O)Cc1ccccc1Nc1c(Cl)cccc1Cl` [Diclofenac, diclofenac], in assay [1], the “Average ABC0-6 (area under the curve of the diameter of the treated legs)” value is listed as 12.5** mm*hr and the “Decrease percentage compared to control (ABC0-6)” value is on record as 37.5%.
With `COc1ccc2c(c1)CC[C@@H]1[C@@H]2CC[C@]2(C)[C@@H](NCCCCCCN3C(=O)C=CC3=O)CC[C@@H]12` [U73122, reference compound], the “delphinidin induced calcium flux after pretreatment (FIG. 3)” value in assay [2] is reported as “dose-dependent reduction”.
As for `C=C1CC[C@@H]2[C@](C)(CO)[C@H](O)CC[C@@]2(C)[C@@H]1C/C=C1/C(=O)OC[C@H]1O` [andrographolide], in assay [3] (setting [9]), the “Average IL-2 production” value is 85 pg/mL and the “Percentage compared to the control (IL-2)” value amounted to 212.5%. In addition, the “IL-2 levels higher (Table 10)” value in assay [3] (andrographolide 5 nM, delphinidin 50 μM) worked out at 112%. In addition, in assay [4] (setting [10]), the “Average IL-2 production” value was 0.0140 Abs 450 nm and the “Percentage compared to the control (IL-2)” value worked out at 84.8%.
Regarding tumor necrosis factor alpha [TNFα], in assay [5], the “Average percentage activity of control [PPAR-γ-Luc/TK-RL] ± SD” value amounted to 283.4 ± 47.23%.
As to `Oc1cc(O)c2cc(O)c(-c3ccc(O)c(O)c3)[o+]c2c1` [cyanidin, Cyanidin], in assay [6] (50 μM), the “INF-γ levels relative to control cells, result in words” value is recorded as “about the same levels”. In addition, in assay [6] (setting [11]), the “Average INF-γ production” value is 8 pg/mL and the “Percentage vs. control (INF-γ)” value is reported as 100%. Moreover, the “IL-2 lower than control cells” value in assay [4] (50 μM, 48 hrs) is 10%. Moreover, in assay [4] (setting [12]), the “Average IL-2 production” value came to 45 pg/mL and the “Percentage vs. control (IL-2)” value was determined as 90%.
For `CCCCC/C=C/C=C1/C(=O)C=C[C@@H]1C/C=C\CCCC(=O)O` [PGj2, 15-deoxi-d 12,14-prostaglandin J2], the “Average percentage activity of control [PPAR-γ-Luc/TK-RL] ± SD” value in assay [5] was 256.8 ± 126.9%.
Take `Cc1nnsc1C(=O)Nc1ccc(-n2nc(C(F)(F)F)cc2C(F)(F)F)cc1` [BTP-2, N-[4-[3,5-bis(trifluoromethyl)-1H-pyrazol-1-yl]phenyl]-4-methyl-1,2,3-thiadiazole-5-carboxamide]: the “Average INF-γ production” value came to 240 pg/mL in assay [7] (setting [13]), 390 pg/mL in assay [7] (setting [14]) and 140 pg/mL in assay [7] (setting [15]). The “Percentage vs. control (INF-γ)” value in assay [7] (setting [13]) worked out at 64.9%; in assay [7] (setting [14]), 105.4%; in assay [7] (setting [15]) it was 37.8%. Also, the “Average IL-2 production” value was 0 pg/mL in assay [3] (Table 7, 48 hrs, 1 μM BTP-2, alone or with 50 μM delphinidin); 0 pg/mL in assay [3] (Table 7, 48 hrs, 5 μM BTP-2, alone or with 50 μM delphinidin); 0 pg/mL in assay [3] (Table 7, 48 hrs, 10 μM BTP-2, alone or with 50 μM delphinidin). In addition, the “delphinidin-induced calcium influx in the presence of inhibitor (FIG. 2A, 2B)” value in assay [8] (delphinidin 50 μM plus BTP-2 10 μM) is “reduced”. The “effect on calcium entry and release, result in words” value in assay [8] (delphinidin 50 μM, BTP-2 10 μM) is reported as “inhibited the entry, but not the release”.

The values are drawn from patent publication US10786522B2, “Compositions that include anthocyanidins and methods of use” (Maqui NewLife S.A., priority 2009, dated 2020).
